Reference: the NIST ThermoML archive (doi:10.1016/j.fluid.2014.01.022)
± gives the expanded uncertainty stated by the source.

What was measured:
[1] = Liquid; for mass density: 298.15 K, 101.33 kPa, Vibrating tube method; for Normal boiling temperature: Ebulliometric method (Recirculating still)
[2] = refractive index (Na D-line) (dimensionless); conditions: 298.15 K; 101.3 kPa; Liquid; Standard Abbe refractometry

Row | SMILES | mass density [1] [kg/m3] | Normal boiling temperature [1] [°C] | refractive index [2]
1 | CC(C)O [propan-2-ol] | 781.4 ± 0.2 | 82.5 ± 1 | 1.375 ± 0.0007
2 | CO [methanol] | 786.9 ± 0.2 | 64.6 ± 1 | 1.3269 ± 0.0007
3 | COC(C)=O [methyl ethanoate] | 927.5 ± 0.2 | 57.2 ± 1 | 1.3596 ± 0.0007

Now from value to compound:

Row | mass density [1] [kg/m3] | Normal boiling temperature [1] [°C] | refractive index [2] | SMILES
4 | 963 ± 0.2 | 146 ± 1 | 1.4 ± 0.0007 | COCC(C)OC(C)=O (stereo not given) [1-methoxy-2-propyl acetate]
5 | 916.5 ± 0.2 | 120.2 ± 1 | 1.4024 ± 0.0007 | COCC(C)O (stereo not given) [1-methoxy-2-propanol]
